Reference: US6479435B1, “Diaryl ethers and processes for their preparation and herbicidal and desiccant compositions containing them” (ISK Americas Incorporated, priority 1997, dated 2002)

Tests used:
Format in all cases: in vivo
[1] = test system: Johnsongrass (Sorghum halepense, SORHA); test: Pre-emerge greenhouse herbicide test, phytotoxicity rating; details: 14 days after application, rating scale 0-100
Summary of the method: (§1)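 Visual 0–100 injury rating (100 = all plants dead) taken 14 days after treatment. Rates of 125–1000 g ai/ha in acetone, 187 l/ha, were sprayed onto soil one day post-sowing; pots were surface-watered to incorporate, then bottom-watered.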

[2] = test system: barnyardgrass (Echinochloa crusgalli, ECHCG); test: as above; details: 14 days after application, rating scale 0-100
Summary of the method: as §1

[3] = test system: common ragweed (Ambrosia artemisiifolia L., AMBEL); test: as above; details: 14 days after application, rating scale 0-100
Summary of the method: as §1

[4] = test system: green foxtail (Setaria viridis, SETVI); test: as above; details: 14 days after application, rating scale 0-100
Summary of the method: as §1

[5] = test system: ivyleaf morningglory (Ipomoea hederacea, IPOHE); test: as above; details: 14 days after application, rating scale 0-100
Summary of the method: as §1

[6] = test system: lambsquarters (Chenopodium album, CHEAL); test: as above; details: 14 days after application, rating scale 0-100
Summary of the method: as §1

[7] = test system: large crabgrass (Digitaria sanguinalis, DIGSA); test: as above; details: 14 days after application, rating scale 0-100
Summary of the method: as §1

[8] = test system: redroot pigweed (Amaranthus retroflexus, AMARE); test: as above; details: 14 days after application, rating scale 0-100
Summary of the method: as §1

[9] = test system: sicklepod (Cassia obtusifolia, CASOB); test: as above; details: 14 days after application, rating scale 0-100
Summary of the method: as §1

[10] = test system: velvetleaf (Abutilon theophrasti, ABUTH); test: as above; details: 14 days after application, rating scale 0-100
Summary of the method: as §1

[11] = test system: field corn (Zea mays L., var. Dekalb 535, CORN); test: Pre-emerge greenhouse test, crop damage rating; details: 14 days after application, rating scale 0-100
Summary of the method: as §1

[12] = test system: upland rice (Oryza sp., var.Tebonnet, RICE); test: Pre-emerge greenhouse test, crop damage rating; details: 14 days after application, rating scale 0-100
Summary of the method: as §1

[13] = test system: soybean (Glycine max L., var. Pella 86, SOY); test: Pre-emerge greenhouse test, crop damage rating; details: 14 days after application, rating scale 0-100
Summary of the method: as §1

[14] = test system: common ragweed (Ambrosia artemisiifolia L., AMBEL); test: Post-emerge greenhouse herbicide test, phytotoxicity rating; details: 14 days after application
Summary of the method: (§2)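 Scores use a 0 (no damage) to 100 (complete kill) scale, taken 14 days after a foliar spray. Acetone solutions with 0.25% v/v non-ionic surfactant were applied by track sprayer at 187 l/ha and 63-1000 g ai/ha to bottom-watered 2-3 leaf plants.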

[15] = test system: Johnsongrass (Sorghum halepense, SORHA); test: as above; details: 14 days after application
Summary of the method: as §2

[16] = test system: barnyardgrass (Echinochloa crusgalli, ECHCG); test: as above; details: 14 days after application
Summary of the method: as §2

[17] = test system: green foxtail (Setaria viridis, SETVI); test: as above; details: 14 days after application
Summary of the method: as §2

[18] = test system: ivyleaf morningglory (Ipomoea hederacea, IPOHE); test: as above; details: 14 days after application
Summary of the method: as §2

[19] = test system: lambsquarters (Chenopodium album, CHEAL); test: as above; details: 14 days after application
Summary of the method: as §2

[20] = test system: large crabgrass (Digitaria sanguinalis, DIGSA); test: as above; details: 14 days after application
Summary of the method: as §2

[21] = test system: redroot pigweed (Amaranthus retroflexus, AMARE); test: as above; details: 14 days after application
Summary of the method: as §2

[22] = test system: velvetleaf (Abutilon theophrasti, ABUTH); test: as above; details: 14 days after application
Summary of the method: as §2

[23] = test system: field corn (Zea mays L., var. Dekalb 535, CORN); test: Post-emerge greenhouse test, crop damage rating; details: 14 days after application
Summary of the method: as §2

[24] = test system: upland rice (Oryza sp., var.Tebonnet, RICE); test: Post-emerge greenhouse test, crop damage rating; details: 14 days after application
Summary of the method: as §2

[25] = test system: soybean (Glycine max L., var. Pella 86, SOY); test: Post-emerge greenhouse test, crop damage rating; details: 14 days after application
Summary of the method: as §2

SMILES: N#Cc1ccccc1Oc1cc(-n2c(=O)n3n(c2=S)CCCC3)c(F)cc1Cl [Compound 8-7]
- phytotoxicity rating SORHA ([1]; 125 g ai/ha): 20
- phytotoxicity rating SORHA ([1]; 500 g ai/ha): 70
- phytotoxicity rating ECHCG ([2]; 125 g ai/ha): 100
- phytotoxicity rating ECHCG ([2]; 500 g ai/ha): 100
- phytotoxicity rating AMBEL ([3]; 125 g ai/ha): 70
- phytotoxicity rating AMBEL ([3]; 500 g ai/ha): 100
- phytotoxicity rating SETVI ([4]; 125 g ai/ha): 70
- phytotoxicity rating SETVI ([4]; 500 g ai/ha): 90
- phytotoxicity rating IPOHE ([5]; 125 g ai/ha): 30
- phytotoxicity rating IPOHE ([5]; 500 g ai/ha): 100
- phytotoxicity rating CHEAL ([6]; 125 g ai/ha): 100
- phytotoxicity rating CHEAL ([6]; 500 g ai/ha): 100
- phytotoxicity rating DIGSA ([7]; 125 g ai/ha): 60
- phytotoxicity rating DIGSA ([7]; 500 g ai/ha): 99
- phytotoxicity rating AMARE ([8]; 125 g ai/ha): 90
- phytotoxicity rating AMARE ([8]; 500 g ai/ha): 100
- phytotoxicity rating CASOB ([9]; 125 g ai/ha): 70
- phytotoxicity rating CASOB ([9]; 500 g ai/ha): 100
- phytotoxicity rating ABUTH ([10]; 125 g ai/ha): 100
- phytotoxicity rating ABUTH ([10]; 500 g ai/ha): 100
- crop damage rating CORN ([11]; 125 g ai/ha): 0
- crop damage rating CORN ([11]; 500 g ai/ha): 10
- crop damage rating RICE ([12]; 125 g ai/ha): 20
- crop damage rating RICE ([12]; 500 g ai/ha): 50
- crop damage rating SOY ([13]; 125 g ai/ha): 0
- crop damage rating SOY ([13]; 500 g ai/ha): 20
- AMBEL phytotoxicity rating (0-100) ([14]; 63 g al/ha): 60
- AMBEL phytotoxicity rating (0-100) ([14]; 500 g al/ha): 80
- SORHA phytotoxicity rating (0-100) ([15]; 63 g al/ha): 0
- SORHA phytotoxicity rating (0-100) ([15]; 500 g al/ha): 70
- ECHCG phytotoxicity rating (0-100) ([16]; 63 g al/ha): 0
- ECHCG phytotoxicity rating (0-100) ([16]; 500 g al/ha): 20
- SETVI phytotoxicity rating (0-100) ([17]; 63 g al/ha): 0
- SETVI phytotoxicity rating (0-100) ([17]; 500 g al/ha): 0
- IPOHE phytotoxicity rating (0-100) ([18]; 63 g al/ha): 100
- IPOHE phytotoxicity rating (0-100) ([18]; 500 g al/ha): 100
- CHEAL phytotoxicity rating (0-100) ([19]; 63 g al/ha): 90
- CHEAL phytotoxicity rating (0-100) ([19]; 500 g al/ha): 100
- DIGSA phytotoxicity rating (0-100) ([20]; 63 g al/ha): 0
- DIGSA phytotoxicity rating (0-100) ([20]; 500 g al/ha): 50
- AMARE phytotoxicity rating (0-100) ([21]; 63 g al/ha): 100
- AMARE phytotoxicity rating (0-100) ([21]; 500 g al/ha): 100
- ABUTH phytotoxicity rating (0-100) ([22]; 63 g al/ha): 100
- ABUTH phytotoxicity rating (0-100) ([22]; 500 g al/ha): 100
- CORN crop damage rating (0-100) ([23]; 63 g al/ha): 20
- CORN crop damage rating (0-100) ([23]; 500 g al/ha): 0
- RICE crop damage rating (0-100) ([24]; 63 g al/ha): 10
- RICE crop damage rating (0-100) ([24]; 500 g al/ha): 50
- SOY crop damage rating (0-100) ([25]; 63 g al/ha): 20
- SOY crop damage rating (0-100) ([25]; 500 g al/ha): 70
